# Source: patent US20240150334A1, “HSD17B13 INHIBITORS AND/OR DEGRADERS” (Pfizer Inc., priority 2022, published 2024)
# pIC50: −log10 of the molar value. Structures can show the parent of a compound that is named as a salt.
# How the values were obtained:
# wild type human HSD17B13 = wild type human HSD17B13 (Homo sapiens (Human), UniProt Q7Z5P4); assay: HEK_Beta-Est LCMS_IC50_Tekcel, whole-cell HEK-HSD17B13 inhibition assay, estrone production by LCMS; assay type: cell-based; conditions: geometric mean, HEK cells stably expressing wild type human HSD17B13, 25 μM FAC beta-estradiol, read-out: HEK_Beta-Est LCMS_IC50—Tekcel GMean IC50
# How it was run: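 HEK cells expressing wild-type human HSD17B13 were preincubated with compound for 1 hour at 37° C, then the beta-estradiol/NAD+ reaction ran for 2 hours at 37° C. Estrone formed was quantified by LCMS as product area ratio and normalized to uninhibited vehicle-control wells.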
# HSD17B13 enzyme = HSD17B13 enzyme (Homo sapiens (Human), UniProt Q7Z5P4); assay: hHSD17B13 IC50 Assay (FAC beta-estradiol), purified protein enzyme activity assay with NAD(P)H-Glo luciferase readout; assay type: biochemical; conditions: geometric mean, 12 μM FAC beta-estradiol, 500 μM NAD+, read-out: hHSD17B13_IC50 GMean IC50
# How it was run: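 Purified human HSD17B13 (30 nM FAC) incubated with compound, beta-estradiol and NAD+ for 2 h at room temperature in the dark. NADH formation was detected by NAD(P)H-Glo luminescence after 1 h. RLUs normalized to uninhibited enzyme (vehicle) as zero effect.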
# Sequence of HSD17B13 enzyme (Q7Z5P4 20-300): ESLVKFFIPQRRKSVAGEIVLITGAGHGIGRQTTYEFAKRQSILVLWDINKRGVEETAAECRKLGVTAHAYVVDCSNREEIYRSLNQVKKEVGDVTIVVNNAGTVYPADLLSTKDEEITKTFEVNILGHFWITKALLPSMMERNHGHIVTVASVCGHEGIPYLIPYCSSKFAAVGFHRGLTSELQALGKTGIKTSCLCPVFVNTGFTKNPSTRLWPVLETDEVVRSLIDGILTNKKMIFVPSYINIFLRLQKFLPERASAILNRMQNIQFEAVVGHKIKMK
# Sequence of wild type human HSD17B13 (Q7Z5P4 20-300): as above
SMILES,pIC50 (wild type human HSD17B13),pIC50 (HSD17B13 enzyme)
"N#Cc1ccc2cn([C@H]3CC[C@H](CNC(=O)c4cc(F)c(O)c(F)c4)CC3)nc2c1 [Example 134, N-{[(1r,4r)-4-(6-cyano-2H-indazol-2-yl)cyclohexyl]methyl}-3,5-difluoro-4-hydroxybenzamide, ammonium salt]",6.33,7.49
"O=C(NC[C@H]1CC[C@H](n2cc3ccc(Cl)cc3n2)CC1)c1cc(F)c(O)c(F)c1 [Example 135, N-{[(1r,4r)-4-(6-chloro-2H-indazol-2-yl)cyclohexyl]methyl}-3,5-difluoro-4-hydroxybenzamide, ammonium salt]",6.60,7.68
"CN1CCN(c2ccc3cn([C@H]4CC[C@H](CNC(=O)c5cc(F)c(O)c(F)c5)CC4)nc3c2)CC1 [Example 136, 3,5-difluoro-4-hydroxy-N-({(1r,4r)-4-[6-(4-methyl-piperazin-1-yl)-2H-indazol-2-yl]cyclohexyl}methyl) benzamide, ammonium salt]",6.52,7.82
"O=C(NC[C@H]1CC[C@H](n2cc3ccc(C(F)(F)F)cc3n2)CC1)c1cc(F)c(O)c(F)c1 [Example 137, 3,5-difluoro-4-hydroxy-N-({(1r,4r)-4-[6-(trifluoromethyl)-2H-indazol-2-yl]cyclohexyl}methyl) benzamide, ammonium salt]",6.55,7.60
"O=C(NC[C@H]1CC[C@H](c2noc(-c3ccccc3)n2)CC1)c1cc(F)c(O)c(F)c1 [Example 138, 3,5-difluoro-4-hydroxy-N-{[(1r,4r)-4-(5-phenyl-1,2,4-oxadiazol-3-yl)cyclohexyl]methyl}benzamide]",6.70,7.80
"O=C(NC[C@H]1CC[C@H](c2nc(-c3cnc(C(F)(F)F)cn3)no2)CC1)c1cc(F)c(O)c(F)c1 [Example 139, 3,5-difluoro-4-hydroxy-N-{[(1r,4r)-4-{3-[5-(trifluoromethyl)pyrazin-2-yl]-1,2,4-oxadiazol-5-yl}cyclohexyl]methyl} benzamide]",6.39,7.66
"O=C(NC[C@]12CC[C@](c3nc(-c4ccc(C(F)(F)F)nc4)no3)(CC1)CC2)c1cc(F)c(O)c(F)c1 [Example 140, 3,5-difluoro-4-hydroxy-N-[(4-{3-[6-(trifluoromethyl)pyridin-3-yl]-1,2,4-oxadiazol-5-yl}bicyclo[2.2.2]octan-1-yl)methyl] benzamide]",6.66,7.80
"O=C(NC[C@]12CC[C@](c3nc4ccccc4o3)(CC1)CC2)c1cc(F)c(O)c(F)c1 [Example 141, N-{[4-(1,3-benzoxazol-2-yl)bicyclo[2.2.2]octan-1-yl]methyl}-3,5-difluoro-4-hydroxybenzamide]",6.72,8.06
"O=C(NC[C@]12CC[C@](c3nc(-c4ccc(C(F)F)nc4)no3)(CC1)CC2)c1cc(F)c(O)c(F)c1 [Example 142, N-[(4-{3-[6-(difluoromethyl)pyridin-3-yl]-1,2,4-oxadiazol-5-yl}bicyclo[2.2.2]octan-1-yl)methyl]-3,5-difluoro-4-hydroxybenzamide]",6.80,8.00
"O=C(NC[C@]12CC[C@](c3nc(-c4ccc(C(F)(F)F)nn4)no3)(CC1)CC2)c1cc(F)c(O)c(F)c1 [Example 143, 3,5-difluoro-4-hydroxy-[(4-{3-[6-(trifluoromethyl)pyridazin-3-yl]-1,2,4-oxadiazol-5-yl}bicyclo[2.2.2]octan-1-yl)methyl]benzamide]",6.74,7.89
"O=C(NC[C@H]1CC[C@H](n2cc3ccc(Cl)cc3n2)CC1)c1cc(F)c(O)cc1F [Example 144, N-{[(1r,4r)-4-(6-chloro-2H-indazol-2-yl)cyclohexyl]methyl}-2,5-difluoro-4-hydroxybenzamide, trifluoroacetate salt]",6.36,7.85
"O=C(NC[C@H]1CC[C@H](n2cc3cc(Cl)ccc3n2)CC1)c1cc(F)c(O)cc1F [Example 145, N-{[(1r,4r)-4-(5-chloro-2H-indazol-2-yl)cyclohexyl]methyl}-2,5-difluoro-4-hydroxybenzamide, trifluoroacetate salt]",6.59,7.74
"Cn1nc(-c2noc([C@]34CC[C@](CNC(=O)c5cc(F)c(O)c(F)c5)(CC3)CC4)n2)ccc1=O [Example 146, 3,5-difluoro-4-hydroxy-N-({4-[3-(1-methyl-6-oxo-1,6-dihydro-pyridazin-3-yl)-1,2,4-oxadiazol-5-yl]bicyclo[2.2.2]octan-1-yl}methyl) benzamide]",6.54,8.25
"O=C(NC[C@H]1CC[C@H](n2cc3cc(C(F)(F)F)ncc3n2)CC1)c1cc(F)c(O)c(F)c1 [Example 147, 3,5-difluoro-4-hydroxy-N-({(1r,4r)-4-[5-(trifluoromethyl)-2H-pyrazolo[3,4-c]pyridin-2-yl]cyclohexyl}methyl) benzamide, ammonium salt]",6.37,7.77
"CCn1cc(-c2ccc3cn([C@H]4CC[C@H](CNC(=O)c5cc(F)c(O)c(F)c5F)CC4)nc3c2)cn1 [Example 150, N-({(1r,4r)-4-[6-(1-ethyl-1H-pyrazol-4-yl)-2H-indazol-2-yl]cyclohexyl}methyl)-2,3,5-trifluoro-4-hydroxybenzamide, trifluoroacetate salt]",6.92,8.32
"COc1cnc(-c2noc([C@]34CC[C@](CNC(=O)c5cc(F)c(O)c(F)c5F)(CC3)CC4)n2)cn1 [Example 151, 2,3,5-trifluoro-4-hydroxy-N-({4-[3-(5-methoxypyrazin-2-yl)-1,2,4-oxadiazol-5-yl]bicyclo[2.2.2]octan-1-yl}methyl) benzamide]",6.77,8.09
"COc1cnc(-c2noc([C@]34CC[C@](CNC(=O)c5cc(F)c(O)c(F)c5)(CC3)CC4)n2)cn1 [Example 152, 3,5-difluoro-4-hydroxy-N-({4-[3-(5-methoxypyrazin-2-yl)-1,2,4-oxadiazol-5-yl]bicyclo[2.2.2]octan-1-yl}methyl)benzamide]",6.85,8.00
"O=C(NC[C@H]1CC[C@H](c2noc(-c3cc4ccccn4n3)n2)CC1)c1cc(F)c(O)c(F)c1 [Example 176, 3,5-difluoro-4-hydroxy-N-({(1r,4r)-4-[5-(pyrazolo[1,5-a]pyridin-2-yl)-1,2,4-oxadiazol-3-yl]cyclohexyl}methyl) benzamide]",6.72,7.96
"O=C(NC[C@]12CC[C@](c3nc(-c4cnc(C(F)(F)F)cn4)no3)(CC1)CC2)c1ccc(O)c(F)c1F [Example 177, 2,3-difluoro-4-hydroxy-N-[(4-{3-[5-(trifluoromethyl)pyrazin-2-yl]-1,2,4-oxadiazol-5-yl}bicyclo[2.2.2]octan-1-yl)methyl]benzamide]",6.43,7.77
"O=C(NC[C@]12CC[C@](c3nc(-c4cnc(C(F)(F)F)cn4)no3)(CC1)CC2)c1cc(F)c(O)c(F)c1F [Example 178, 2,3,5-trifluoro-4-hydroxy-N-[(4-{3-[5-(trifluoromethyl)pyrazin-2-yl]-1,2,4-oxadiazol-5-yl}bicyclo[2.2.2]octan-1-yl)methyl]benzamide]",6.82,8.10
"O=C(NC[C@]12CC[C@](c3nc(-c4cnc(C(F)(F)F)cn4)no3)(CC1)CC2)c1cc(F)c(O)cc1F [Example 179, 2,5-difluoro-4-hydroxy-N-[(4-{3-[5-(trifluoromethyl)pyrazin-2-yl]-1,2,4-oxadiazol-5-yl}bicyclo[2.2.2]octan-1-yl)methyl]benzamide]",6.82,7.80
"O=C(NC[C@]12CC[C@](c3nc(-c4ccc(C(F)(F)F)nn4)no3)(CC1)CC2)c1ccc(O)c(F)c1F [Example 180, 2,3-difluoro-4-hydroxy-N-[(4-{3-[6-(trifluoromethyl)pyridazin-3-yl]-1,2,4-oxadiazol-5-yl}bicyclo[2.2.2]octan-1-yl)methyl]benzamide]",6.33,7.96
"O=C(NC[C@H]1CC[C@H](n2cc3cc(C(F)(F)F)ccc3n2)CC1)c1cc(F)c(O)c(F)c1 [Example 181, 3,5-difluoro-4-hydroxy-N-({(1r,4r)-4-[5-(trifluoromethyl)-2H-indazol-2-yl]cyclohexyl}methyl) benzamide]",6.64,7.80
"O=C(NC[C@H]1CC[C@H](n2cc3cc(C(F)(F)F)ccc3n2)CC1)c1cc(F)c(O)c(F)c1F [Example 182, 2,3,5-trifluoro-4-hydroxy-N-({(1r,4r)-4-[5-(trifluoromethyl)-2H-indazol-2-yl]cyclohexyl}methyl) benzamide]",6.64,7.80
"O=C(NC[C@H]1CC[C@H](n2cc3cc(C(F)(F)F)ccc3n2)CC1)c1cc(F)c(O)cc1F [Example 183, 2,5-difluoro-4-hydroxy-N-({(1r,4r)-4-[5-(trifluoromethyl)-2H-indazol-2-yl]cyclohexyl}methyl)benzamide]",6.35,8.00
"O=C(NC[C@]12CC[C@](c3nc(-c4ccc(C(F)(F)F)nn4)no3)(CC1)CC2)c1cc(F)c(O)c(F)c1F [Example 184, 2,3,5-trifluoro-4-hydroxy-N-[(4-{3-[6-(trifluoromethyl)pyridazin-3-yl]-1,2,4-oxadiazol-5-yl}bicyclo[2.2.2]octan-1-yl)methyl]benzamide]",6.66,8.26
"O=C(NC[C@]12CC[C@](c3nc(-c4ccc(C(F)(F)F)nn4)no3)(CC1)CC2)c1cc(F)c(O)cc1F [Example 185, 2,5-difluoro-4-hydroxy-N-[(4-{3-[6-(trifluoromethyl)pyridazin-3-yl]-1,2,4-oxadiazol-5-yl}bicyclo[2.2.2]octan-1-yl)methyl]benzamide]",6.85,8.43
